Experimental data published in patent publication US10301317B2, “Inhibitors of ERK and methods of use” (Kura Oncology, Inc., priority 2013, dated 2019).

How the values were obtained:
[1] = test system: phospho-p90 RSK (RSK1 Thr359/Ser363) in A375 (Braf V600E) cells; experiment: Phospho-p90 RSK ELISA using A375 (Braf V600E) cells; type: cell-based; conditions: Homo sapiens, A-375, 2 hours compound treatment, read-out: Cellular Phospho-p90RSK IC50
A375 cells = experiment: Tumor cell line proliferation assay (CellTiter Glo), A375; type: cell-based; conditions: Homo sapiens, A-375, 96 h, read-out: A375 (V599E) Cell Proliferation IC50

SMILES | IC50 [1] | IC50 (A375 cells)
COc1ncc(-c2n[nH]c3cc4c(cc23)CN([C@@H]2CCCN(Cc3ccc(F)cc3F)C2)C(=O)N4)cn1 [Example 280] | ≤ 250 nM | ≤ 250 nM
Cc1cc(-c2n[nH]c3cc4c(cc23)CN([C@@H]2CN(C)C[C@H]2c2ccccc2)C(=O)N4)ccn1 (racemic) [Example 241] | ≤ 250 nM | ≤ 250 nM
C[C@H](c1ccccc1)c1cc2cc3c(NC4CCOCC4)n[nH]c3cc2[nH]c1=O [Example 357] | ≤ 250 nM | ≤ 250 nM
COc1ccc(-c2n[nH]c3cc4c(cc23)CN([C@@H]2CCCN(Cc3ccccc3)C2)C(=O)N4)cn1 [Example 272] | ≤ 250 nM | ≤ 250 nM
COc1cccc(F)c1CN1CC[C@@H](N2Cc3cc4c(-c5ccnc(C)c5)n[nH]c4cc3NC2=O)C1 [Example 162] | ≤ 250 nM | ≤ 250 nM
Cc1cc(-c2n[nH]c3cc4c(cc23)CN(C2CCCC2)C(=O)N4)cc(C)n1 [Example 239] | ≤ 250 nM | ≤ 250 nM
Cc1cc(-c2n[nH]c3cc4[nH]c(=O)c(C5CCCN(Cc6ccccc6)C5)cc4cc23)ccn1 (stereo not shown) [Example 332] | ≤ 250 nM | ≤ 250 nM
Cc1cc(-c2n[nH]c3cc4c(cc23)CN(CCNCc2ccccc2)C(=O)N4)ccn1 [Example 149] | 250 to 1000 nM | ≤ 250 nM
Cc1cc(-c2n[nH]c3cc4c(cc23)CN([C@@H]2CCN(CCc3ccccc3)C2)C(=O)N4)ccn1 [Example 153] | ≤ 250 nM | ≤ 250 nM
Cc1ccc(-c2n[nH]c3cc4c(cc23)CN([C@@H]2CCCN(Cc3ccc(F)cc3F)C2)C(=O)N4)cn1 [Example 284] | ≤ 250 nM | ≤ 250 nM
Cc1cc(-c2n[nH]c3cc4c(cc23)CN([C@@H]2CCCN(Cc3cccc(F)c3F)C2)C(=O)N4)ccn1 [Example 185] | ≤ 250 nM | ≤ 250 nM
Cc1cc(-c2n[nH]c3cc4c(cc23)CN(Cc2cc(F)cc(F)c2)C(=O)N4)cc(C)n1 [Example 225] | ≤ 250 nM | ≤ 250 nM
COc1ncc(-c2n[nH]c3cc4c(cc23)CN(C2CN(Cc3ccccc3)CC(F)(F)C2)C(=O)N4)cn1 (stereo not shown) [Example 320] | ≤ 250 nM | 250 to 1000 nM
Cc1cc(-c2n[nH]c3cc4c(cc23)CN([C@@H]2CN(CC(F)F)C[C@H]2c2ccccc2)C(=O)N4)ccn1 (mixture of isomers) [Example 362] | ≤ 250 nM | ≤ 250 nM
Cc1cc(-c2n[nH]c3cc4c(cc23)CN([C@@H]2CCCN(Cc3ccsc3)C2)C(=O)N4)ccn1 [Example 252] | ≤ 250 nM | ≤ 250 nM
Cc1cc(-c2n[nH]c3cc4c(cc23)CN([C@H]2CN(Cc3ccccc3)CC(F)(F)C2)C(=O)N4)ccn1 [Example 264] | ≤ 250 nM | ≤ 250 nM
Cc1cc(-c2n[nH]c3cc4c(cc23)CN(C(C)c2nccs2)C(=O)N4)ccn1 (stereo not shown) [Example 234] | ≤ 250 nM | 250 to 1000 nM
Cc1cc(-c2n[nH]c3cc4c(cc23)CN([C@@H]2CN(CC#N)C[C@H]2c2ccccc2)C(=O)N4)ccn1 (mixture of isomers) [Example 366] | ≤ 250 nM | > 1000 nM
Cn1cc(-c2n[nH]c3cc4c(cc23)CN([C@@H]2CCCN(Cc3ccccc3)C2)C(=O)N4)cn1 [Example 285] | ≤ 250 nM | ≤ 250 nM
Cn1cc(-c2n[nH]c3cc4c(cc23)CN([C@@H]2CCCN(Cc3ccc(F)cc3F)C2)C(=O)N4)cn1 [Example 281] | ≤ 250 nM | ≤ 250 nM
CC(c1ccccc1)c1cc2cc3c(-c4ccnc(N5CCN(C)CC5)c4)n[nH]c3cc2[nH]c1=O (stereo not shown) [Example 318] | ≤ 250 nM | ≤ 250 nM
CCN1C[C@@H](N2Cc3cc4c(-c5ccnc(C)c5)n[nH]c4cc3NC2=O)[C@H](c2ccccc2)C1 (racemic) [Example 278] | ≤ 250 nM | ≤ 250 nM
Cc1cc(-c2n[nH]c3cc4c(cc23)CN([C@@H]2CCCN(Cc3csc(C)c3)C2)C(=O)N4)ccn1 [Example 251] | ≤ 250 nM | ≤ 250 nM
